# Source: ChEMBL document CHEMBL5528082 (J Med Chem, 2024)
# Assays:
# [1] = Cytotoxicity against human NCM460 cells assessed as inhibition rate of cell growth at 100 uM incubated for 24 hrs by CCK8 assay relative to control; assay type: toxicity, cell-based
# [2] = Cytotoxicity against HEK293 cells assessed as inhibition rate of cell growth at 100 uM incubated for 24 hrs by CCK8 assay relative to control; assay type: toxicity, cell-based; details: human
# Staphylococcus aureus [3] = test: Antibacterial activity against TMP-resistant Staphylococcus aureus BHKS 723 incubated for 24 hrs by CLSI based broth microdilution assay; assay type: functional
# [4] = tested on: Dihydrofolate reductase (Staphylococcus aureus); details: dose 100.0 nM
# Staphylococcus aureus [5] = test: Antibacterial activity against TMP-resistant Staphylococcus aureus BHKS 721 incubated for 24 hrs by CLSI based broth microdilution assay; assay type: functional
# Staphylococcus aureus [6] = test: Antibacterial activity against Staphylococcus aureus ATCC 25923 incubated for 24 hrs by CLSI based broth microdilution assay; assay type: functional
# Staphylococcus aureus [7] = test: Antibacterial activity against TMP-resistant Staphylococcus aureus BHKS 227 incubated for 24 hrs by CLSI based broth microdilution assay; assay type: functional
# Staphylococcus aureus [8] = test: Antibacterial activity against Staphylococcus aureus USA 300 incubated for 24 hrs by CLSI based broth microdilution assay; assay type: functional
Compound,"inhibition at 24 h, 100 µM [1] [%]","inhibition at 24 h, 100 µM [2] [%]",MIC (Staphylococcus aureus [3]) [µg/mL],inhibition [4] [%],MIC (Staphylococcus aureus [5]) [µg/mL],MIC (Staphylococcus aureus [6]) [µg/mL],MIC (Staphylococcus aureus [7]) [µg/mL],MIC (Staphylococcus aureus [8]) [µg/mL]
CC(C)c1cc(OCC2CC2)c(-c2cc(Cl)cc(Cl)c2)cc1Oc1cnc(N)nc1N,35.8,27.5,4,89.2,2,0.5,2,0.5
CC(C)c1cc(OCC2CC2)c(-c2ccc(OC(F)(F)F)cc2)cc1Oc1cnc(N)nc1N,31.3,22.9,4,78.9,2,0.5,4,0.5
COc1cc(C(C)C)c(Oc2cnc(N)nc2N)cc1-c1ccncc1,6.02,2.09,32,37.2,> 32,1,4,1
COc1cc(C(C)C)c(Oc2cnc(NC(C)=O)nc2NC(C)=O)cc1I,18.2,26.7,> 32,32.6,> 32,> 32,> 32,> 32
CCC(C)Oc1cc(C(C)C)c(Oc2cnc(N)nc2N)cc1I (configuration not stated),70.7,44.6,4,50.8,4,0.016,1,0.016
CCC(C)c1cc(OC)c(I)cc1Oc1cnc(N)nc1N (configuration not stated),62.7,28.5,16,56.3,8,0.125,1,0.125
CCCCOc1cc(C(C)C)c(Oc2cnc(N)nc2N)cc1-c1ccc(C(F)(F)F)cc1,42.3,40.2,4,90.9,4,2,4,4
CCCCOc1cc(C(C)C)c(Oc2cnc(N)nc2N)cc1-c1ccc(C(C)C)cc1,40.9,46.6,2,64,4,1,8,2
COc1cc(Cc2cnc(N)nc2N)cc(OC)c1OC [TRIMETHOPRIM],8.06,2.93,16,,16,0.5,32,0.5
CC(C)CCOc1cc(C(C)C)c(Oc2cnc(N)nc2N)cc1I,35.6,64,8,79.6,8,0.125,2,0.125
CC(C)c1cc(O)c(I)cc1Oc1cnc(N)nc1N,3,30.1,4,61.7,4,0.125,0.5,0.125
COc1cc(C(C)C)c(Oc2cnc(N)nc2N)cc1-c1cc(C)cc(C)c1,68.8,29.7,16,64.6,8,0.5,2,0.5
COc1cc(C(C)C)c(Oc2cnc(N)nc2N)cc1-c1ccccc1,74.2,49.2,32,,32,0.5,2,0.25
COc1cccc(OC)c1C(=O)N[C@@H]1C(=O)N2[C@@H]1SC(C)(C)[C@@H]2C(=O)O [METHICILLIN],,,1,,1,1,64,128
